pEC50, pKd: −log10 of the molar value. Ends that are not written are not given here.
How the values were obtained:
Aβ42 oligomers (LMW Aβo) = biological target: T1, Aβ42 oligomers (LMW Aβo) (Homo sapiens, UniProt P05067); assay: Indirect ELISA, binding of immobilized BP/CP to biotinylated LMW Aβ42 oligomers
T1 construct: Biotinyl-Amyloid b pr otein ( 1-42); purchased Bachem H-5642; host or cells: chemical synthesis
Experimental: (§1) Synthetic Aβ40, Aβ42, and their biotinylated forms were obtained as lyophilized samples from Bachem (Aβ40, b‐Aβ40, Aβ42 and b‐Aβ42). Briefly, peptides were solubilized in 1,1,1,3,3,3‐hexafluoro‐2‐propanol to prevent oligomerization, then evaporated overnight under a chemical fume hood, and stored as a dried peptide film at −80°C until use, as previously described (Stine et al., [2003]). Aβ monomers (Aβm) were prepared extemporaneously by first dissolving the peptide film in 2 mM dimethyl sulfoxide (DMSO) and vortexing for 1 min. Peptides were further diluted to 100 μM in ice‐cold PBS. Diluted peptides were subsequently sonicated for 20 min at 4°C, centrifuged at 10,000g for 3 min, then the supernatant was collected and concentration of Aβm measured using a micro BCA protein assay kit, prior to being aliquoted and stored at −20°C until use. […]
(§2) The binding of CP or BP to synthetic biotinylated LMW Aβo (oligomerized at 4°C for 24 h) or Aβ40 monomers (Aβm) was determined by indirect ELISA in which CP or BP were used as the capture antigens and the biotin tag of the biotinylated Aβ peptides for the detection. […] Absorbance was successively measured at 450 and 540 nm with a TECAN microplate reader and optical density values at 540 nm were subtracted from the ones at 450 nm to correct for optical imperfections of the plate. […]

[1] = biological target: T2, Aβo-VEGF interaction (recombinant human VEGF165) (Homo sapiens, UniProt P05067); assay: Competitive ELISA, Aβo binding to immobilized VEGF165; type: biochemical
T2 construct: Biotinyl-Amyloid b pr otein ( 1-42); purchased R&D Systems (VEGF165); Bachem (biotinyl-Aβ 1-42) 293-VE (VEGF165); H-5642 (biotinyl-Aβ 1-42)
T2 sequence (P05067 672-713 limits assumed): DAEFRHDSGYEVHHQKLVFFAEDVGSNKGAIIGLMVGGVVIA
Experimental: Data were expressed as mean ± SEM in ThT, Western blotting, synaptic targeting experiments and electrophysiological recordings (Table S2). Normality and variance homoscedasticity were assessed using descriptive analysis and appropriate tests. Sample size (n) was determined based on previous studies from the literature and pilot experiments; n refers to the number of ELISA, ThT or Western Blotting experiments, to coverslips or culture wells for hippocampal neuron cultures, and to mice per condition or per genotype for electrophysiological experiments. […] For the analysis of Aβ‐BP interaction, K D was determined by fitting the data to a two‐parameter saturation curve. […] For quantitative assessment of Aβ aggregation, Aβ expression level and the percentage of synapses colocalized with Aβ, data were compared for statistical significance between groups using a Kruskal–Wallis and a Dunn's post hoc test with Holm correction (R software) (Table S3). For electrophysiological data, statistical analysis between treatments and/or genotypes were carried out using a Kruskal–Wallis followed by a Dunn's post hoc test to compare differences in fEPSP slopes (Table S3). […]
Competi tive ELISA experi ments were performed to anal yse the ability of the BP to impede bi oti nyl ated LMW Aβo bi ndi ng to VEGF. […] After adding the stop solution, absorbance was measured using a TECAN microplate reader.

[2] = system: synapses / LTP impaired by Aβo; settings: ref Martin et al., 2021; cited from earlier work
Aβ40 monomers (Aβm) = biological target: T3, Aβ40 monomers (Aβm) (Homo sapiens, UniProt P05067); assay: Indirect ELISA, binding of immobilized BP/CP to biotinylated Aβ40 monomers; settings: Aβm 0 to 10 μg/mL
T3 construct: Biotinyl-Amyloid b pr otein ( 1-40); purchased Bachem H-5914; host or cells: chemical synthesis
T3 sequence (P05067 672-711 limits assumed): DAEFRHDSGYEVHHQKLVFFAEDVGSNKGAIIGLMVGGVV
Experimental: as §1, §2

[3] = system: Aβ42 monomers (Aβm), fibrillation; assay: Thioflavin T aggregation assay; type: biochemical; settings: increasing concentrations 0.5 to 15 μM, 15 μM Aβm, 24 h
Experimental: as §1
Thioflavin‐T (ThT) assays were performed in black polystyrene 384‐well plates using a Tecan microplate reader with a set of excitation/emission wavelengths of 450/490 nm. […] The plate was sealed with a transparent plastic film and incubated at 37°C prior to fluorescence measurement. ThT fluorescence intensity was monitored every 5 min over 24 h at 37°C without agitation. Three replicates per condition were measured.
Data were expressed as mean ± SEM in ThT, Western blotting, synaptic targeting experiments and electrophysiological recordings (Table S2). […]

Aβ42 fibrils = assay: Transmission electron microscopy of Aβ aggregates; type: biochemical
Experimental: Synthetic Aβ40, Aβ42, and their biotinylated forms were obtained as lyophilized samples from Bachem (Aβ40, b‐Aβ40, Aβ42 and b‐Aβ42). Briefly, peptides were solubilized in 1,1,1,3,3,3‐hexafluoro‐2‐propanol to prevent oligomerization, then evaporated overnight under a chemical fume hood, and stored as a dried peptide film at −80°C until use, as previously described (Stine et al., [2003]). Aβ monomers (Aβm) were prepared extemporaneously by first dissolving the peptide film in 2 mM dimethyl sulfoxide (DMSO) and vortexing for 1 min. Peptides were further diluted to 100 μM in ice‐cold PBS. Diluted peptides were subsequently sonicated for 20 min at 4°C, centrifuged at 10,000g for 3 min, then the supernatant was collected and concentration of Aβm measured using a micro BCA protein assay kit, prior to being aliquoted and stored at −20°C until use. […] Aβ preparations were used either directly as monomers (for Aβ40 Elisa assays and ThT experiments) or were subjected to different oligomerization states, enriched in high molecular weight Aβ42 oligomers (HMW Aβo) or in low molecular weight Aβ42 oligomers (LMW Aβo). For Aβ preparations enriched in Aβ fibrils, monomeric Aβ42 peptides (Aβm) were incubated at a concentration of either 30 μM or 15 μM during 24 h at 37°C. For HMW Aβo, Aβm was incubated at 15 μM for 2 h at 37°C. […]

[4] = system: Aβ42 oligomerization (monomers, LMW and HMW Aβo); assay: Western blot (6E10) of soluble Aβ species formed in presence of peptide; type: biochemical; settings: equimolar peptide, 15 μM Aβm, 37°C
Experimental: as §1
After a 45 min blocking step in Tris‐buffered saline, 0.1% Tween, pH 7.6, 5% milk, membranes were immunoblotted overnight at 4°C with dedicated antibodies (Table S1) diluted in Tris‐buffered saline, 0.1% Tween, pH 7.6, with 2% milk. […] Proteins were visualized with an ECL detection system and band intensities quantified using a densitometric analysis with ImageJ software.

[5] = system: hippocampal neuron cultures (Aβo binding to PSD95/Bassoon synapses); assay: Synaptic targeting in hippocampal neurons by Aβ oligomerized with peptide; type: cell-based, C57Bl/6JRj mouse; settings: Aβ oligomerized 2 h in presence of peptide; 0.5 μM, 30 min
Experimental: Primary hippocampal neuron cultures were prepared from E17‐18 C57Bl/6JRj mice. Briefly, hippocampi were removed and collected in Hank's buffered salt solution (HBSS), digested in HBSS supplemented with trypsin (0.25% v/v) for 10 min at 37°C and then rinsed in HBSS and BSA 0.2%. Next, hippocampi were triturated in Neurobasal medium without phenol red, supplemented with L‐glutamine (2 mM), 2% B27, 1% penicillin/streptomycin (P/S) (10,000 U/mL). Hippocampal neurons were then plated onto poly‐L‐lysine coated coverslips (0.5 mg/mL) at a low density (15 × 10^3 cells/cm^2) for synaptic targeting experiments. Neurons were cultured in supplemented Neurobasal medium at 37°C under 5% CO2, one‐half of the medium being changed once a week. […]
Treated hippocampal neuron cultures were fixed for 4 min in 4% paraformaldehyde (PFA) in 0.1 M phosphate buffer at RT, prior to immunostaining. After a blocking step in non‐permeabilizing condition (PBS, 1% BSA) surface‐bound biotinylated Aβ was detected with fluorescently tagged streptavidin incubated for 3 h at RT. […]
Subsequent analyses of hippocampal synapse staining were performed by a blinded investigator with Icy software. […] Biotinylated Aβ clusters were quantified in each ROI in collapsed Z‐stacks. […]

[6] = system: SC-CA1 synapses in WT hippocampal slices; assay: LTP (TBS) in WT hippocampal slices; type: cell-based, wild-type mouse
Experimental: (§3) Data were expressed as mean ± SEM in ThT, Western blotting, synaptic targeting experiments and electrophysiological recordings (Table S2). Normality and variance homoscedasticity were assessed using descriptive analysis and appropriate tests. Sample size (n) was determined based on previous studies from the literature and pilot experiments; n refers to the number of ELISA, ThT or Western Blotting experiments, to coverslips or culture wells for hippocampal neuron cultures, and to mice per condition or per genotype for electrophysiological experiments. […] For the analysis of Aβ‐BP interaction, K D was determined by fitting the data to a two‐parameter saturation curve. […] For quantitative assessment of Aβ aggregation, Aβ expression level and the percentage of synapses colocalized with Aβ, data were compared for statistical significance between groups using a Kruskal–Wallis and a Dunn's post hoc test with Holm correction (R software) (Table S3). For electrophysiological data, statistical analysis between treatments and/or genotypes were carried out using a Kruskal–Wallis followed by a Dunn's post hoc test to compare differences in fEPSP slopes (Table S3).

[7] = system: SC-CA1 synapses in APP/PS1 hippocampal slices; assay: LTP (TBS) in APP/PS1 hippocampal slices; type: cell-based, APP/PS1-21 mouse
Experimental: as §3

[8] = system: SC-CA1 synapses in WT hippocampal slices; assay: Paired-pulse facilitation in WT hippocampal slices; type: cell-based, wild-type mouse; settings: 50 ms, after TBS
Experimental: (§4) Local field potential recordings (LFP) were performed on acute coronal hippocampal slices from 8‐month‐old wild type and transgenic heterozygous male APP/PS1‐21 mice to measure baseline synaptic response and long‐term potentiation (LTP) of Schaffer collaterals to CA1 (SC‐CA1) pyramidal cell synapses. Hippocampal slices (400 μm thick) were cut using a vibratome (Leica VT1200S) and incubated at room temperature in artificial cerebrospinal fluid (ACSF) containing (in mM): 124 NaCl, 10 glucose, 1.25 NaH2PO4, 2.5 KCl, 26 NaHCO3, 1.3 MgCl2, and 2.5 CaCl2, bubbled with 95% O2 and 5% CO2, pH 7.4 for 1 h prior to recording. Field excitatory postsynaptic potentials (fEPSPs) were recorded extracellularly in stratum radiatum of CA1 region of the dorsal hippocampus in presence of gamma‐aminobutyric acid (GABA)‐A receptor antagonist picrotoxin (100 μM). Electrical stimulation was realized with a bipolar tungsten electrode placed in CA1 stratum radiatum and fEPSPs were measured using borosilicate glass microelectrodes (~1–3 MΩ) filled with ACSF. […] LFP were sampled at 10 kHz and fEPSPs initial slope was computed to quantify synaptic responses. […] For quantification, the slope of the synaptic response to the second stimulation was divided by that of the first response.

[9] = system: SC-CA1 synapses in APP/PS1 hippocampal slices; assay: Paired-pulse facilitation in APP/PS1 hippocampal slices; type: cell-based, APP/PS1-21 mouse; settings: 50 ms, after TBS
Experimental: as §4

[10] = system: VEGFR2 phosphorylation (Tyr1175) in HUVEC; assay: VEGFR2 phosphorylation Western blot in HUVEC; type: cell-based, human; settings: 0.5 μM, 5 min
Experimental: Human um bi l i cal v ei n endothel i al C ell s (HUVEC ) were obtai ned from Pr omocel l and cul tured
in 6 cm Petri di s hes pre-coated wi th col l ag en I at 5 µ g /cm2 in 20 mM glacial acetic acid. HUVEC
were cultured at 7000 cells/cm2 in endothelial cell growth medium MV2 heparin free
(Promocel l ) s uppl emented wi th 1% P/S unti l reac hi ng 80% c onfl uency , an d were us ed for u p
0.5 µ M. After treatments, HUVEC were washed a nd i ncubated i n 6 00 mL of l ysi s buf fer (Tri s HCL 25 mM, EDTA 5 mM, DOC 0.5 mM, NP40 1%, SDS 0.1%, NaCl 150 mM), suppl emented with cOmplete protease inhibitor cocktail 2%, Benzonase 0.02%, Orthovanadate 2%, and phos phat as e i nhi bi t ors 2% for 10 mi n at 4°C .
For immunoblotting of HUVEC cel l l y s ates , 20 µg of proteins were separated on 3-8% g radi ent SDS-PAGE gels at 120V, with cathode and ano de contai ni ng XT Try ci ne buffe r. G el s w ere transferred on 0.2 µm nitrocellulose membranes at 120V for 2h in 5% methanol, Tris-Glycine buffer and immunoblotted.
were used in combination with approp riate secondary antibodies (Table S1)

[11] = 0.5 μM, at least 40 min before TBS

T1 sequence (P05067 672-713 limits assumed): as the sequence (P05067 672-713 limits assumed) above

Substance: KRKKSRYKSWSVYVG [BP]
- pKd (Aβ42 oligomers (LMW Aβo)): 7.92
- pEC50 ([1]; Aβo 2.1 μM preincubated with BP 1 h RT, three-parameter sigmoidal fit, n = 5-6): 6.46

Substance: VEGF
- Protection of synapses / LTP from Aβo [2]: ability to preserve synapses from dysfunction and LTP deficits caused by Aβo

Substance: NDYKDDDDKGAAA [CP]
- Binding of Aβo to immobilized peptide (Aβ42 oligomers (LMW Aβo); ELISA, Aβo 0 to 10 μg/mL): failed to bind to the CP even at the highest concentration
- Binding of Aβm to immobilized peptide (Aβ40 monomers (Aβm)): failed to bind to the CP even at the highest concentration
- Effect on ThT fluorescence [3]: had no impact on ThT fluorescence
- Morphology of Aβ aggregates by TEM (Aβ42 fibrils; Aβ 30 μM + equimolar peptide, 24 h at 37°C, n = 4): typical fibrillary structures
- Structures formed by peptide alone, TEM (Aβ42 fibrils; peptide alone, no Aβ): do not show any detectable 3D structures
- Effect on proportion of Aβ species [4]: did not change the proportion of Aβo species
- Aβo binding to neuron surface and synapses [5]: strong binding to hippocampal neuron surface
- Effect on LTP in WT slices [6, 11]: neither CP nor the BP impacted LTP responses
- LTP amplitude, fEPSP slope 55–60 min after TBS ([6]; peptide 0.5 μM at least 40 min before TBS, WT slices, 8-month-old male, mean ± SEM, n = 6 mice): 191.4 ± 18.3%
- Effect on LTP in APP/PS1 slices [7, 11]: failed to restore LTP
- LTP amplitude, fEPSP slope 55–60 min after TBS ([7]; peptide 0.5 μM at least 40 min before TBS, APP/PS1 slices, 8-month-old male, mean ± SEM, n = 7 mice): 119 ± 9.1%
- Effect on paired-pulse ratio [8]: no differences were detected
- Effect on paired-pulse ratio [9]: no differences were detected
- Effect on basal VEGFR2 phosphorylation [10]: did not affect basal VEGFR2 phosphorylation level
- Effect on Aβo-VEGF interaction ([1]; peptide preincubated with Aβo 2.1 μM): did not affect Aβo binding

From PMC10497828, “A novel peptide derived from vascular endothelial growth factor prevents amyloid beta aggregation and toxicity” (Aging Cell, 2023)
